Experimental data from patent US10316017B2, “COT modulators and methods of use thereof” (Gilead Sciences, Inc., priority 2015, dated 2019).

Experiments:
[1] = test system: TNFα production in LPS-stimulated human monocytes; assay: Cot Monocyte TNFα Cell Based Assay; settings: Homo sapiens, Monocyte, TNFα in LPS-stimulated human monocytes; read-out: EC50 TNF
How it was run: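 TNFα release quantified by two-antibody TR-FRET, normalised to unstimulated (0%) and LPS-stimulated (100%) wells. Cells got a 1 h compound exposure at 37° C in 0.5% DMSO before 4 h challenge with 50 pg/ml LPS, at 5,000 cells/well.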

[2] = target: T1, human Cot catalytic domain (30-397 amino acids) (Homo sapiens, UniProt P41279); assay: High Throughput Cot Biochemical Assay (KinEASE TR-FRET); settings: Cot KinEASE TR-FRET (HTRF) biochemical assay, 400 μM ATP; read-out: IC50 HTRF
T1 construct: Purified recombinant human Cot catalytic domain (30-397 amino acids) was purchased from Cama Biosciences; purchased Cama Biosciences (so in the source)
How it was run: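 TR-FRET (KinEASE) read-out: Eu-labelled phospho-specific antibody binds XL665-tagged STK3 peptide (1 μM) phosphorylated by 5 nM human Cot kinase domain (residues 30-397). Reaction at 400 μM ATP, pH 7.0 MOPS buffer with 10 mM MgOAc, 1 mM DTT and 0.1% DMSO.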

T1 sequence (P41279 30-397): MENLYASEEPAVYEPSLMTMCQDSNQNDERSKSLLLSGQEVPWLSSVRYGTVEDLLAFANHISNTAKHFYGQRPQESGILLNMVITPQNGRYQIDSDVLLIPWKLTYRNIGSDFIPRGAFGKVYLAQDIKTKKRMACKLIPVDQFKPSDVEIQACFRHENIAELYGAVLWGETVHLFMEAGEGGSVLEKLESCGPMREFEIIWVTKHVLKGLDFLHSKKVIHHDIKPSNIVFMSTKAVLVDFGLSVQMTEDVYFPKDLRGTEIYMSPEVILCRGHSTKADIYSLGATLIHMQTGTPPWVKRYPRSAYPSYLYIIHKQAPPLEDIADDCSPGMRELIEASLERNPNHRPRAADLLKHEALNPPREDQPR

EC50 [1] [nM] | IC50 [2] [nM] | SMILES
764 | 90 | [2H][C@](Nc1cc(Cl)c2ncc(C#N)c(NC(C)(C)C)c2c1)(c1ccc(F)cc1)c1cn(C2CC2)nn1 [Example 283, (S)-4-(tert-butylamino)-8-chloro-6-(((1-cyclopropyl-1H-1,2,3-triazol-4-yl)(4-fluorophenyl)methyl-d)amino)quinoline-3-carbonitrile]
52 | 4 | [2H][C@](Nc1cc(C#N)c2ncc(C#N)c(NCC(C)(C)C)c2c1)(c1ccc(F)cc1)c1cn(C2CC2)nn1 [Example 284, (S)-6-(((1-cyclopropyl-1H-1,2,3-triazol-4-yl)(4-fluorophenyl)methyl-d)amino)-4-(neopentylamino) quinoline-3,8-dicarbonitrile]
45 | 3 | [2H][C@](Nc1cc(C#N)c2ncc(C#N)c(N[C@H](CC)c3ccccc3)c2c1)(c1ccc(F)cc1)c1cn(C2CC2)nn1 [Example 285, 6-(((S)-(1-cyclopropyl-1H-1,2,3-triazol-4-yl)(4-fluorophenyl)methyl-d)amino)-4-(((R)-1-phenylpropyl)amino) quinoline-3,8-dicarbonitrile]
140 | 10 | [2H][C@](Nc1cc(Br)c2ncc(C#N)c(NCC(C)(C)C)c2c1)(c1ccc(F)cc1)c1cn(C2CC2)nn1 [Example 287, (S)-8-bromo-6-(((1-cyclopropyl-1H-1,2,3-triazol-4-yl)(4-fluorophenyl)methyl-d)amino)-4-(neopentylamino)quinoline-3-carbonitrile]
130 | 6 | [2H][C@](Nc1cc(Br)c2ncc(C#N)c(N[C@H](CC)c3ccccc3)c2c1)(c1ccc(F)cc1)c1cn(C2CC2)nn1 [Example 288, 8-bromo-6-(((S)-(1-cyclopropyl-1H-1,2,3-triazol-4-yl)(4-fluorophenyl)methyl-d)amino)-4-(((R)-1-phenylpropyl)amino)quinoline-3-carbonitrile]
116 | 4 | [2H][C@@](Nc1cc(Cl)c2ncc(C#N)c(NCC(C)(C)C)c2c1)(c1cn(C2CC2)nn1)c1cccc(C#N)c1Cl [Example 289, (S)-8-chloro-6-(((2-chloro-3-cyanophenyl)(1-cyclopropyl-1H-1,2,3-triazol-4-yl)methyl-d)amino)-4-(neopentylamino) quinoline-3-carbonitrile]
173 | 8 | [2H][C@](Nc1cc(F)c2ncc(C#N)c(N[C@H](CC)c3ccccc3)c2c1)(c1ccc(F)cc1)c1cn(C2CC2)nn1 [Example 291, 6-(((S)-(1-cyclopropyl-1H-1,2,3-triazol-4-yl)(4-fluorophenyl)methyl-d)amino)-8-fluoro-4-(((R)-1-phenylpropyl)amino) quinoline-3-carbonitrile]
237 | 13 | [2H][C@@](Nc1cc(Cl)c2ncc(C#N)c(N[C@H](CC)c3ccccc3)c2c1)(c1cn(C2CC2)nn1)c1cccc(C#N)c1Cl [Example 292, 8-chloro-6-(((S)-(2-chloro-3-cyanophenyl)(1-cyclopropyl-1H-1,2,3-triazol-4-yl)methyl-d)amino)-4-(((R)-1-phenylpropyl)amino)quinoline-3-carbonitrile]
469 | 24 | N#Cc1cnc2c(Cl)cc(N[C@H](c3cn(C4CC4)nn3)c3cccc(Cl)c3Cl)cc2c1Nc1cnc(F)c(F)c1 [Example 293, (S)-8-chloro-6-(((1-cyclopropyl-1H-1,2,3-triazol-4-yl)(2,3-dichlorophenyl)methyl)amino)-4-((5,6-difluoropyridin-3-yl)amino)quinoline-3-carbonitrile]
1880 | 92 | CC[C@@H](Nc1c(C#N)cnc2c(Cl)cc(N[C@H](c3cn(C4CC4)nn3)c3cccc(Cl)c3Cl)cc12)c1ccccc1 [Example 294, 8-chloro-6-(((S)-(1-cyclopropyl-1H-1,2,3-triazol-4-yl)(2,3-dichlorophenyl)methyl)amino)-4-(((R)-1-phenylpropyl)amino)quinoline-3-carbonitrile]
> 10000 | 389 | [2H][C@](Nc1cc(Cl)c2ncc(C#N)c(N[C@@H](CC#N)c3ccccc3)c2c1)(c1cccc(C#N)c1)c1cn(C2CC2)nn1 [Example 295, 8-chloro-4-(((S)-2-cyano-1-phenylethyl)amino)-6-(((S)-(3-cyanophenyl)(1-cyclopropyl-1H-1,2,3-triazol-4-yl)methyl-d)amino)quinoline-3-carbonitrile]
44 | 2 | [2H][C@](Nc1cc(Cl)c2ncc(C#N)c(N[C@H](CC#N)c3ccccc3)c2c1)(c1cccc(C#N)c1)c1cn(C2CC2)nn1 [Example 296, 8-chloro-4-(((R)-2-cyano-1-phenylethyl)amino)-6-(((S)-(3-cyanophenyl)(1-cyclopropyl-1H-1,2,3-triazol-4-yl)methyl-d)amino)quinoline-3-carbonitrile]
4250 | > 10000 | CC[C@@H](Nc1c(C#N)cnc2c(Cl)cc(N[C@@H](c3ccc(F)cc3)c3c[nH]nn3)c(F)c12)c1ccccc1 [Example 297]
1470 | 121 | [2H][C@](Nc1cc(Cl)c2ncc(C#N)c(N[C@H](CC)c3ccccc3)c2c1)(c1ccccc1Cl)c1nn[nH]c1C [Example 298, 8-chloro-6-(((S)-(2-chlorophenyl)(5-methyl-1H-1,2,3-triazol-4-yl)methyl-d)amino)-4-(((R)-1-phenylpropyl)amino)quinoline-3-carbonitrile]
309 | 12 | [2H][C@](Nc1cc(Cl)c2ncc(C#N)c(NCC(C)(C)C#N)c2c1)(c1ccc(F)cc1)c1cn(C2CC2)nn1 [Example 299, (S)-8-chloro-4-((2-cyano-2-methylpropyl)amino)-6-(((1-cyclopropyl-1H-1,2,3-triazol-4-yl)(4-fluorophenyl)methyl-d)amino)quinoline-3-carbonitrile]
126 | 4 | [2H][C@](Nc1cc(Cl)c2ncc(C#N)c(N[C@H](CC)c3cccc(F)c3)c2c1)(c1ccc(F)cc1)c1cn(C2CC2)nn1 [Example 300, 8-chloro-6-(((S)-(1-cyclopropyl-1H-1,2,3-triazol-4-yl)(4-fluorophenyl)methyl-d)amino)-4-(((R)-1-(3-fluorophenyl)propyl)amino) quinoline-3-carbonitrile]
1240 | > 10000 | [2H][C@](Nc1cc(Cl)c2ncc(C#N)c(NNC3CCCCC3)c2c1)(c1ccc(F)cc1)c1cn(C2CC2)nn1 [Example 301, (S)-8-chloro-4-(2-cyclohexylhydrazinyl)-6-(((1-cyclopropyl-1H-1,2,3-triazol-4-yl)(4-fluorophenyl)methyl-d)amino)quinoline-3-carbonitrile]
74 | 3 | [2H][C@](Nc1cc(Cl)c2ncc(C#N)c(NC(CCC#N)c3ccccc3)c2c1)(c1ccc(F)cc1)c1cn(C2CC2)nn1 (stereo partly drawn) [Example 302, 8-chloro-4-((3-cyano-1-phenylpropyl)amino)-6-(((S)-(1-cyclopropyl-1H-1,2,3-triazol-4-yl)(4-fluorophenyl)methyl-d)amino)quinoline-3-carbonitrile]
174 | 4 | [2H][C@](Nc1cc(Cl)c2ncc(C#N)c(Nc3cnc(F)c(Cl)c3)c2c1)(c1cccc(C#N)c1)c1cn(C2CC2)nn1 [Example 303, (S)-8-chloro-4-((5-chloro-6-fluoropyridin-3-yl)amino)-6-(((3-cyanophenyl)(1-cyclopropyl-1H-1,2,3-triazol-4-yl)methyl-d)amino)quinoline-3-carbonitrile]
> 10000 | 864 | CC(C)n1cc([C@@H](Nc2cc(Cl)c3ncc(C#N)c(N[C@@H](CC#N)c4ccccc4)c3c2)c2ccc(F)cc2)nn1 [Example 304, 8-chloro-4-(((S)-2-cyano-1-phenylethyl)amino)-6-(((S)-(4-fluorophenyl)(1-isopropyl-1H-1,2,3-triazol-4-yl)methyl)amino)quinoline-3-carbonitrile]
78 | 4 | CC(C)n1cc([C@@H](Nc2cc(Cl)c3ncc(C#N)c(N[C@H](CC#N)c4ccccc4)c3c2)c2ccc(F)cc2)nn1 [Example 305, 8-chloro-4-(((R)-2-cyano-1-phenylethyl)amino)-6-(((S)-(4-fluorophenyl)(1-isopropyl-1H-1,2,3-triazol-4-yl)methyl)amino)quinoline-3-carbonitrile]
950 | 116 | [2H][C@](Nc1cc(Cl)c2ncc(C#N)c(NC(c3ccccc3)C(C)(C)C)c2c1)(c1ccc(F)cc1)c1cn(C2CC2)nn1 (stereo partly drawn) [Example 307, 8-chloro-6-(((S)-(1-cyclopropyl-1H-1,2,3-triazol-4-yl)(4-fluorophenyl)methyl-d)amino)-4-((2,2-dimethyl-1-phenylpropyl)amino)quinoline-3-carbonitrile]
361 | 26 | [2H][C@](Nc1cc(Cl)c2ncc(C#N)c(NCC(C)(C)CO)c2c1)(c1ccc(F)cc1)c1cn(C2CC2)nn1 [Example 308, (S)-8-chloro-6-(((1-cyclopropyl-1H-1,2,3-triazol-4-yl)(4-fluorophenyl)methyl-d)amino)-4-((3-hydroxy-2,2-dimethylpropyl)amino) quinoline-3-carbonitrile]
2360 | > 10000 | [2H][C@](Nc1cc(Cl)c2ncc(C#N)c(NNC(C)(C)C)c2c1)(c1ccc(F)cc1)c1cn(C2CC2)nn1 [Example 310, (S)-4-(2-(tert-butyl)hydrazinyl)-8-chloro-6-(((1-cyclopropyl-1H-1,2,3-triazol-4-yl)(4-fluorophenyl)methyl-d)amino)quinoline-3-carbonitrile]
